Measurements published in PubChem BioAssay (NCI).
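Grown in 96-well plates, cells were treated for 48 hours with each compound at five concentrations. Insufficient inhibition: endpoint recorded as highest concentration tested. At the GI50, growth is halved. Definition used: TGI = concentration required for complete inhibition of growth.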

What follows are molecules tested on NCI-H226 lung (assay: NCI tumour cell line growth inhibition, 48 h).

SMILES | GI50 [µM] | TGI [µM]
CSC1=Nc2c(c(C)c(-c3ccccc3)n2COC(CO)CO)C2=NC(=O)CC(C)N12 (centres undefined) | > 100 | > 100
COc1ccc(C2Cc3cc(OC)c(OC)c(OC)c3C2)cc1 (centres undefined) | – | > 100

The molecules below were run on SF-539 CNS (assay: NCI tumour cell line growth inhibition, 48 h).

SMILES | TGI [µM] | GI50 [µM]
CC1(C)OC(=O)C(=C2CCC(C(=O)Nc3cccc(C(F)(F)F)c3)N2)C(=O)O1 (centres undefined) | > 100 | –
CN(C)CCN1CCc2c([nH]c3ccccc23)C1c1cccnc1 (centres undefined) | > 100 | –
CN(C)c1ccc(C(O)C2=CC(=O)c3ccccc3C2=O)cc1 (centres undefined) | 6.08 | 2.6
Clc1ccc(CN2CCCN(Cc3ccc(Cl)cc3)C2c2cc3ccccc3c3ccccc23)cc1 | > 100 | –
CCN(c1ccccc1)[C@H]1C(=O)N(c2ccc([N+](=O)[O-])cc2)[C@H]1c1ccc(OC)cc1 | > 100 | –
COc1ccc(/C=C\c2cc(OC)c(OC)c(OC)c2)cc1 | 0.00384 | –
COc1cc(N(C)C)c(OC)cc1C=C1C=CC=C1 | > 100 | –
C[C@H]1CC[P+](C)(c2ccccc2)C1 (some centres undefined) | > 100 | –
C=C1CC[C@H]2C(C)=CC[C@H]3C(=C)C(=O)O[C@@H]3[C@@H]12 | > 100 | –
COc1cc(OC)c2c(=O)c3cccc([N+](=O)[O-])c3n(C)c2c1 | > 100 | –
COc1cccc(/C=N\NC(=O)C(C)SC(C)C(=O)N/N=C/c2cccc(OC)c2)c1 (centres undefined) | > 100 | –
O=[N+]([O-])/C=C/c1ccc(Cl)cc1[N+](=O)[O-] | 5.91 | 2.65
O=C(O)c1ccccc1NCn1c(=S)sc2ccccc21 | 48.9 | –
CCCCCCCCCCCCCCCC[n+]1ccccc1 | 2.35 | 0.95
Cc1cc(C)nc(NS(=O)(=O)c2ccc(Nc3c4ccccc4nc4c(C(=O)NCCN(C)C)cccc34)cc2)n1 | 14.9 | –
COc1cc2c(c(OC)c1OC)C(=O)NCCC2 | > 100 | –
COc1ccc(-c2c(N)noc2-c2cc(OC)c3c(c2)OCCO3)cc1 | 1.28 | 0.0121
Nc1ccccc1C#Cc1ccccc1C#Cc1cccs1 | 32.9 | 16.1
COc1ccc(-c2cc(/C=C/C(=O)c3ccc(N)cc3)[nH]n2)cc1 | 3.48 | 1.47
O=C1CCC(=O)N1Sc1ccccc1 | > 100 | –

SMILES | TGI [µM] | GI50 [µM]
CCOC(=O)c1c(NC(=O)c2ccc(Cl)cc2)sc2c(CN(C)C)c(O)ccc12 | 18.4 | 5.2
OCC(O)C(O)C(O)C(O)c1nnc2c(-c3ccccc3)nc3ccccc3n12 (centres undefined) | > 100 | > 100
O=C(/C=C/c1ccccc1O)c1ccccc1Cl | > 100 | –
CCCCC1(C(NC(=O)c2ccccc2Cl)c2ccncc2)C(=O)N(c2ccccc2)N(c2ccccc2)C1=O (centres undefined) | > 100 | –
N#Cc1cc(S(=O)(=O)Nc2nc3cc(Cl)ccc3o2)c(SCc2ccccc2)cc1Cl | 26.4 | 13.5
COc1ccc(/C=N/NS(=O)(=O)c2ccccc2)cc1 | > 100 | –
C1=CC2CCC1CN2CCC1CNc2ccccc21 (centres undefined) | > 100 | –
Cc1ccc(OC(=O)N2C/C(=C\c3ccccc3)C(=O)/C(=C/c3ccccc3)C2)cc1 | 66.2 | –
O=c1oc2c3ccc4ccccc4c3n(CCN3CCCCC3)c2c2ccccc12 | > 49.4 | –
O=c1cccc(Cl)[nH]1 | > 100 | –
Cc1ccc(S(=O)C(C)C(Cl)c2ccccc2)cc1 (centres undefined) | > 100 | –
Cc1cc(Cl)ccc1NC(=O)C1C(=O)N(c2ccc(Cl)cc2C)C(=O)/C1=N\NC(N)=S (centres undefined) | 70.6 | –
OCCN(CO)CO | > 100 | –
COc1ccc(C2=Nn3c(nnc3-n3nc(C)cc3C)SC2)cc1 | 0.0594 | 0.023
COc1ccc(Br)c(C(=O)N2CCc3ccccc32)c1N | 97 | –
COc1ccc(C)cc1NC(=S)C#N | > 100 | –
Cc1ccc2ccc(-c3ccccc3)c3c2c1C(=O)c1ccccc1C3=O | > 100 | –
OCC(O)C(O)C(O)c1nn(-c2ccc(F)cc2)c2nc3cc(Cl)c(Cl)cc3nc12 (centres undefined) | 39.2 | –
CSC1=Nc2c(c(C)c(-c3ccccc3)n2COC(CO)CO)C2=NC(=O)CC(C)N12 (centres undefined) | > 100 | > 100
COc1ccc(C2Cc3cc(OC)c(OC)c(OC)c3C2)cc1 (centres undefined) | > 100 | –
